Our source for the IC50 values is patent publication US10508085B2, “Compounds and methods for IDO and TDO modulation, and indications therefor” (Plexxikon Inc., priority 2016, dated 2019).

Assay [1] addresses T1, Human Indoleamine 2,3-dioxygenase (IDO) (Homo sapiens, UniProt P14902).
T1 construct: His tag (N); made in house; host or cells: E. coli
The assay is described as follows: Human IDO enzymatic assay (kynurenine level). The note with it: 6 nM IDO, 10 μM L-Trp; geometric mean; read-out: IDO1 GMean: IC50 (μM) (Biochemical Assay). In kind it is biochemical. Put shortly:
(§1)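 IDO conditions: 6 nM His-IDO, 10 μM L-Trp, 5 μM methylene blue, 20 min, RT. TDO conditions: 1 nM His-TDO, 350 μM L-Trp, 0.4 μM methylene blue, 70 min, RT. Both used pH 6.5 phosphate plus ascorbate/catalase, TCA stop at 50° C, kynurenine readout, nonlinear-regression IC50.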

Assay [2] addresses T2, Human Tryptophan 2,3-dioxygenase (TDO) (Homo sapiens, UniProt P48775).
T2 construct: His tag (N); made in house; host or cells: E. coli
The experiment in a line: Human TDO enzymatic assay (kynurenine level). Conditions: 1 nM TDO, 350 μM L-Trp; geometric mean; read-out: TDO GMean: IC50 (μM) (Biochemical Assay). Format: biochemical. In a few lines:
as §1

The target of assay [3] is T3, human IDO (IDO1-expressing HEK293 cells) (Homo sapiens, UniProt P14902).
T3 construct: expressed in transfected cells
T3 sequence (P14902 whole entry): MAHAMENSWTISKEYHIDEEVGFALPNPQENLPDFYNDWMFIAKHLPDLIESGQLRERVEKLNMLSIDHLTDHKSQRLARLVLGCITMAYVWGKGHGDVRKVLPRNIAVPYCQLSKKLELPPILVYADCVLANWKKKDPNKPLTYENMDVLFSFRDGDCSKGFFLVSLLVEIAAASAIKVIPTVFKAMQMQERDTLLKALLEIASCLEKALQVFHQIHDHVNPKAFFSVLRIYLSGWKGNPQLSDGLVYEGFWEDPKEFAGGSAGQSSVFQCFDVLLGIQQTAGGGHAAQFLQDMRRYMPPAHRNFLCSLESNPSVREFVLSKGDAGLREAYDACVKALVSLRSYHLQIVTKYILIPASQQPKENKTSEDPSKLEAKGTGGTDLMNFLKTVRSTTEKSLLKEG
The assay is described as follows: Cell based kynurenine assay, IDO1-expressing HEK293 cell clones. Conditions: IDO1-expressing HEK293 cells, geometric mean, read-out: HEK293 IDO1 Kynurenine GMean IC50 (μM) (Cellular Assay). In a few lines:
(§2)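 Steps: seed IDO1- or TDO-expressing HEK293 cells at 2.5×10^4 per well; add compound dilutions; incubate 24 h; transfer supernatant and determine kynurenine; derive IC50 via nonlinear regression of percent inhibition.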

The target of assay [4] is T4, human TDO (TDO-expressing HEK293 cells) (Homo sapiens, UniProt P48775).
T4 construct: expressed in transfected cells
T4 sequence (P48775 whole entry): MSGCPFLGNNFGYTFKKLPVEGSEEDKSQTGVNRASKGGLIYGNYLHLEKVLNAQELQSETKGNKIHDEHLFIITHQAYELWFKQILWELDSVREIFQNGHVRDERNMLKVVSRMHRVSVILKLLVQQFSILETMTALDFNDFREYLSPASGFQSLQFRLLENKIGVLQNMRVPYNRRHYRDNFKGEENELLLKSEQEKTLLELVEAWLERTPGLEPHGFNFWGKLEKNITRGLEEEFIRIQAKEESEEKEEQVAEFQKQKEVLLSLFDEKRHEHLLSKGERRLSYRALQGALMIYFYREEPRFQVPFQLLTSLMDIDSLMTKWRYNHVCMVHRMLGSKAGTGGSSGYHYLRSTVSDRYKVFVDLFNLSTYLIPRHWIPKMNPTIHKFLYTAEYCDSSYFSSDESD
The experiment in a line: Cell based kynurenine assay, TDO-expressing HEK293 cell clones. Conditions: TDO-expressing HEK293 cells, geometric mean, read-out: HEK293 TDO Kynurenine GMean IC50 (μM) (Cellular Assay). Put shortly:
as §2

SMILES strings stand for the structures. Like-named read-outs stand apart in the source and are kept apart here.

T2 sequence (P48775 whole entry): as above
T1 sequence (P14902 whole entry): as the sequence (P14902 whole entry) above

Consider `OC(c1cc(Cl)cc2cn[nH]c12)C1(F)CCCCC1` (centres unmarked) [Compound P-0004, (5-chloro-1H-indazol-7-yl)(1-fluorocyclohexyl)methanol], for which the IC50 in assay [1], in assay [2], in assay [3] (24 hours incubation) and in assay [4] (24 hours incubation) was 0.0001 to 10 µM throughout.

Consider `CC(C)(C1CCN(C(=O)C2CC2)CC1)[C@H](O)c1cc(Cl)cc2cn[nH]c12` [Compound P-0529, (S)-(4-(1-(5-chloro-1H-indazol-7-yl)-1-hydroxy-2-methylpropan-2-yl)piperidin-1-yl)(cyclopropyl) methanone], for which the IC50 in assay [1], in assay [2], in assay [3] (24 hours) and in assay [4] (24 hours) was 0.0001 to 10 µM in each case.

In the case of `COc1cc(NC(=O)N2CCC(C(C)(C)C(O)c3cc(Cl)cc4cn[nH]c34)CC2)cc(OC)c1` (centres unmarked) [Compound P-0396, 4-(1-(5-chloro-1H-indazol-7-yl)-1-hydroxy-2-methylpropan-2-yl)-N-(3,5-dimethoxyphenyl) piperidine-1-carboxamide], the IC50 in assay [1], in assay [2], in assay [3] (24 hours incubation) and in assay [4] (24 hours incubation) was 0.0001 to 10 µM in each case.

As to `CC1(C(O)c2cc(Cl)cc3cn[nH]c23)CCCC1` (centres unmarked) [Compound P-0021, (5-chloro-1H-indazol-7-yl)(1-methylcyclopentyl)methanol], the IC50 in assay [1], in assay [2], in assay [3] (24 hours incubation) and in assay [4] (24 hours incubation) was 0.0001 to 10 µM throughout.

Consider `CC(=O)N1C2CCC1CC(C(C)(C)C(O)c1c(F)c(Cl)cc3cn[nH]c13)C2` (centres unmarked) [Compound P-0300], for which the IC50 in assay [1], in assay [2], in assay [3] (24 hours incubation) and in assay [4] (24 hours incubation) was 0.0001 to 10 µM throughout.

In the case of `CS(=O)(=O)N1CCC(C(O)c2cc(Cl)cc3cn[nH]c23)CC1` (centres unmarked) [Compound P-0283, (5-chloro-1H-indazol-7-yl)(1-(methylsulfonyl)piperidin-4-yl)methanol], the half-inhibitory concentration (IC50) was 0.0001 to 10 µM in assay [1], 0.0001 to 10 µM in assay [2], over 10 µM in assay [3] (24 hours incubation) and 0.0001 to 10 µM in assay [4] (24 hours incubation).

Consider `CC(C)(C1CCN(C(=O)Nc2ccc(Cl)c(C(F)(F)F)c2)CC1)C(O)c1cc(Cl)cc2cn[nH]c12` (centres unmarked) [Compound P-0393, 4-(1-(5-chloro-1H-indazol-7-yl)-1-hydroxy-2-methylpropan-2-yl)-N-(4-chloro-3-(trifluoromethyl)phenyl)piperidine-1-carboxamide], for which the IC50 in assay [1], in assay [2], in assay [3] (24 hours incubation) and in assay [4] (24 hours incubation) was 0.0001 to 10 µM throughout.

Take `CCC(=O)N1CCC(C(C)(C)C(O)c2cc(Cl)cc3cn[nH]c23)CC1` (centres unmarked) [Compound P-0311, 1-(4-(1-(5-chloro-1H-indazol-7-yl)-1-hydroxy-2-methylpropan-2-yl)piperidin-1-yl)propan-1-one]: the 50% inhibitory concentration (IC50) in assay [1], in assay [2], in assay [3] (24 hours incubation) and in assay [4] (24 hours incubation) was 0.0001 to 10 µM each time.

Take `OC(c1cc(F)cc2cn[nH]c12)C1CCCCC1` (centres unmarked) [Compound P-0042, cyclohexyl(5-fluoro-1H-indazol-7-yl)methanol]: the IC50 in assay [1], in assay [2], in assay [3] (24 hours incubation) and in assay [4] (24 hours incubation) was 0.0001 to 10 µM each time.

In the case of `CCC(CC)C(O)c1cc(Cl)cc2cn[nH]c12` (centres unmarked) [Compound P-0268, 1-(5-chloro-1H-indazol-7-yl)-2-ethylbutan-1-ol], the 50% inhibitory concentration (IC50) in assay [1], in assay [2], in assay [3] (24 hours incubation) and in assay [4] (24 hours incubation) was 0.0001 to 10 µM throughout.

On to `CC1(C(O)c2c3c(cc4cn[nH]c24)CC3)CCCCC1` (centres unmarked) [Compound P-0054, (5,6-dihydro-1H-cyclobuta[f]indazol-7-yl)(1-methylcyclohexyl)methanol], for which the IC50 in assay [1] was 0.0001 to 10 µM; in assay [2], 0.0001 to 10 µM; in assay [3] (24 hours incubation), 0.0001 to 10 µM; in assay [4] (24 hours incubation), over 10 µM.

For the molecule `CC(C)CC(=O)N1CCC(C(F)(F)C(O)c2c(F)c(Cl)cc3cn[nH]c23)CC1` (centres unmarked) [Compound P-0375, 1-(4-(2-(5-chloro-6-fluoro-1H-indazol-7-yl)-1,1-difluoro-2-hydroxyethyl)piperidin-1-yl)-3-methylbutan-1-one], the 50% inhibitory concentration (IC50) in assay [1], in assay [2], in assay [3] (24 hours incubation) and in assay [4] (24 hours incubation) was 0.0001 to 10 µM in each case.

Turning to `CN(C)C(C)(C)C(O)c1cc(Cl)cc2cn[nH]c12` (centres unmarked) [Compound P-0230, 1-(5-chloro-1H-indazol-7-yl)-2-(dimethylamino)-2-methylpropan-1-ol], the half-inhibitory concentration (IC50) is 10 to 100 µM in assay [1], 10 to 100 µM in assay [2], over 10 µM in assay [3] (24 hours incubation) and over 10 µM in assay [4] (24 hours incubation).

For the molecule `CC(C)(C1CCN(S(C)(=O)=O)CC1)C(O)c1c(F)c(Cl)cc2cn[nH]c12` (centres unmarked) [Compound P-0261, 1-(5-chloro-6-fluoro-1H-indazol-7-yl)-2-methyl-2-(1-(methylsulfonyl)piperidin-4-yl)propan-1-ol], the 50% inhibitory concentration (IC50) in assay [1], in assay [2], in assay [3] (24 hours incubation) and in assay [4] (24 hours incubation) was 0.0001 to 10 µM each time.

As to `CC(C)(C1CCOCC1)C(O)c1c(Cl)c(Cl)cc2cn[nH]c12` (centres unmarked) [Compound P-0220, 1-(5,6-dichloro-1H-indazol-7-yl)-2-methyl-2-(tetrahydro-2H-pyran-4-yl)propan-1-ol], the IC50 in assay [1], in assay [2], in assay [3] (24 hours incubation) and in assay [4] (24 hours incubation) was 0.0001 to 10 µM throughout.

As to `O=C(C1CCC1)N1CCC(C(F)(F)C(O)c2cc(Cl)cc3cn[nH]c23)CC1` (centres unmarked) [Compound P-0349, (4-(2-(5-chloro-1H-indazol-7-yl)-1,1-difluoro-2-hydroxyethyl)piperidin-1-yl)(cyclobutyl) methanone], the IC50 in assay [1], in assay [2], in assay [3] (24 hours incubation) and in assay [4] (24 hours incubation) was 0.0001 to 10 µM throughout.

In the case of `C[C@@H](NC(=O)N1CCC(C(C)(C)C(O)c2cc(Cl)cc3cn[nH]c23)CC1)c1ccccn1` (stereo partly drawn) [Compound P-0479, 4-(1-(5-chloro-1H-indazol-7-yl)-1-hydroxy-2-methylpropan-2-yl)-N-((R)-1-(pyridin-2-yl)ethyl)piperidine-1-carboxamide], the IC50 in assay [1], in assay [2], in assay [3] (24 hours) and in assay [4] (24 hours) was 0.0001 to 10 µM each time.

For `O=C(O)C1CCC(C(O)c2cc(Cl)cc3cn[nH]c23)CC1` (centres unmarked) [Compound P-0219, 4-((5-chloro-1H-indazol-7-yl)(hydroxy)methyl)cyclohexane-1-carboxylic acid], the IC50 in assay [1] was 10 to 100 µM; in assay [2] it was 0.0001 to 10 µM; in assay [3] (24 hours incubation), over 10 µM; in assay [4] (24 hours incubation), over 10 µM.

Regarding `OC(c1cccnc1)c1cc(Cl)cc2cn[nH]c12` (centres unmarked) [Compound P-0001, (5-chloro-1H-indazol-7-yl)(pyridin-3-yl)methanol], the IC50 in assay [1] was 0.0001 to 10 µM; in assay [2], 0.0001 to 10 µM; in assay [3] (24 hours incubation) it was over 10 µM; in assay [4] (24 hours incubation) it was over 10 µM.

Take `CC(C)(C1CCN(S(C)(=O)=O)CC1)C(O)c1cc(Cl)cc2[nH]ncc12` (centres unmarked) [Compound P-0171, 1-(6-chloro-1H-indazol-4-yl)-2-methyl-2-(1-(methylsulfonyl)piperidin-4-yl)propan-1-ol]: the IC50 in assay [1] is 0.0001 to 10 µM; in assay [2], 0.0001 to 10 µM; in assay [3] (24 hours incubation), over 10 µM; in assay [4] (24 hours incubation) it was 0.0001 to 10 µM.

Regarding `OC(c1cc(Cl)cc2cn[nH]c12)C1(Cc2cccc(F)c2)CCC1` (centres unmarked) [Compound P-0188, (5-chloro-1H-indazol-7-yl)(1-(3-fluorobenzyl)cyclobutyl)methanol], the IC50 in assay [1] was 0.0001 to 10 µM; in assay [2], 0.0001 to 10 µM; in assay [3] (24 hours incubation), 0.0001 to 10 µM; in assay [4] (24 hours incubation), over 10 µM.

For the molecule `CC(C)(C1CCN(C(=O)N[C@H]2CC[C@H](C)CC2)CC1)C(O)c1cc(Cl)cc2cn[nH]c12` (some centres unmarked) [Compound P-0449, 4-(1-(5-chloro-1H-indazol-7-yl)-1-hydroxy-2-methylpropan-2-yl)-N-((1r,4r)-4-methylcyclohexyl) piperidine-1-carboxamide], the half-maximal inhibitory concentration (IC50) in assay [1], in assay [2], in assay [3] (24 hours) and in assay [4] (24 hours) was 0.0001 to 10 µM each time.

Turning to `CCC(CC)(CC)C(O)c1cc(Cl)cc2cn[nH]c12` (centres unmarked) [Compound P-0267, 1-(5-chloro-1H-indazol-7-yl)-2,2-diethylbutan-1-ol], the half-inhibitory concentration (IC50) in assay [1], in assay [2], in assay [3] (24 hours incubation) and in assay [4] (24 hours incubation) was 0.0001 to 10 µM each time.

In general, IC50 refers to the concentration at which inhibition is half-maximal.
